Assay results from the CheMixHub drug solubility set.

Assay: xn = mol fraction of the nth substance listed, in the solute-free solvent

CCCSc1ccc2[nH]c(NC(=O)OC)nc2c1 + CCO + O
solubility (g/100 g solution)
Conditions | x2 = 0.0416 | x2 = 0.0891 | x2 = 0.1435 | x2 = 0.2068 | x2 = 0.2811 | x2 = 0.3697 | x2 = 0.4771 | x2 = 0.61 | x2 = 0.7787
288.95 K | 0.00065 | 0.00225 | 0.0048 | 0.00531 | 0.0142 | 0.031 | 0.0476 | 0.0657 | 0.0669
293.15 K | 0.00113 | 0.00279 | 0.0063 | 0.00878 | 0.0211 | 0.0396 | 0.0538 | 0.0706 | 0.0729
297.15 K | 0.00141 | 0.0033 | 0.00736 | 0.0137 | 0.025 | 0.0476 | 0.0643 | 0.0856 | 0.0933
301.25 K | 0.00181 | 0.00417 | 0.00932 | 0.0172 | 0.0324 | 0.0565 | 0.0753 | 0.0966 | 0.11
305.15 K | 0.00257 | 0.00518 | 0.0114 | 0.0207 | 0.04 | 0.0682 | 0.0957 | 0.124 | 0.137
309.15 K | 0.00328 | 0.00624 | 0.0127 | 0.025 | 0.048 | 0.0834 | 0.118 | 0.162 | 0.169
313.05 K | 0.00395 | 0.00729 | 0.0156 | 0.0318 | 0.0594 | 0.104 | 0.149 | 0.204 | 0.208
317.25 K | 0.00594 | 0.00852 | 0.0188 | 0.0386 | 0.0732 | 0.12 | 0.185 | 0.242 | 0.25

FC(F)(F)c1cccnc1Cl + CCOC(C)=O + CCCCO
solubility (g/100 g solution)
Conditions | 263.15 K | 268.15 K | 273.15 K | 278.15 K | 283.15 K | 288.15 K | 293.15 K | 298.15 K | 303.15 K
x2 = 0.2518 | 27.4 | 32.6 | 37.9 | 43.8 | 50.9 | 57.7 | 64.8 | 71.6 | 77.6
x2 = 0.4023 | 33.5 | 38.3 | 42.5 | 49.6 | 54.8 | 61.4 | 68 | 74.3 | 80.5
x2 = 0.5999 | 37.2 | 42.5 | 47.4 | 53.5 | 60.2 | 66.6 | 72.6 | 78.8 | 84.3
x2 = 0.7998 | 42.4 | 47.7 | 52.6 | 59 | 64.3 | 70.8 | 76.8 | 82.4 | 87.4

Cc1c(Br)c(=O)n(C2CCCC2)c2nc(Cl)ncc12 + CCOC(C)=O + CCO
solubility (g/100 g solution)
Conditions | 278.15 K | 283.15 K | 288.15 K | 293.15 K | 298.15 K | 303.15 K | 308.15 K | 313.15 K | 318.15 K | 323.15 K
x2 = 0.1 | 0.181 | 0.219 | 0.26 | 0.312 | 0.368 | 0.429 | 0.506 | 0.589 | 0.684 | 0.79
x2 = 0.2 | 0.238 | 0.286 | 0.341 | 0.403 | 0.475 | 0.553 | 0.645 | 0.746 | 0.86 | 0.987
x2 = 0.3 | 0.297 | 0.353 | 0.418 | 0.491 | 0.574 | 0.668 | 0.775 | 0.892 | 1.02 | 1.17
x2 = 0.4 | 0.349 | 0.414 | 0.492 | 0.571 | 0.665 | 0.77 | 0.888 | 1.02 | 1.17 | 1.32
x2 = 0.5 | 0.396 | 0.467 | 0.548 | 0.639 | 0.742 | 0.856 | 0.984 | 1.13 | 1.28 | 1.45
x2 = 0.6 | 0.438 | 0.514 | 0.602 | 0.701 | 0.811 | 0.931 | 1.07 | 1.22 | 1.38 | 1.57
x2 = 0.7 | 0.478 | 0.56 | 0.652 | 0.756 | 0.873 | 1 | 1.15 | 1.3 | 1.48 | 1.67
x2 = 0.8 | 0.52 | 0.608 | 0.706 | 0.817 | 0.939 | 1.08 | 1.23 | 1.39 | 1.57 | 1.77
x2 = 0.9 | 0.571 | 0.665 | 0.77 | 0.888 | 1.02 | 1.16 | 1.32 | 1.5 | 1.69 | 1.9

N#CCNC(=O)c1cnccc1C(F)(F)F + CCOC(C)=O + CCO
solubility (g/100 g solution)
Conditions | 283.15 K | 288.15 K | 293.15 K | 298.15 K | 303.15 K | 308.15 K | 313.15 K | 318.15 K | 323.15 K
x2 = 0.2 | 4.4 | 5.22 | 6.22 | 7.38 | 8.72 | 10.2 | 12 | 14 | 16.2
x2 = 0.4 | 5.66 | 6.57 | 7.58 | 8.78 | 10.1 | 11.6 | 13.2 | 15.2 | 17.2
x2 = 0.6 | 5.43 | 6.27 | 7.24 | 8.3 | 9.5 | 10.8 | 12.3 | 13.9 | 15.6
x2 = 0.8 | 4.38 | 5.03 | 5.77 | 6.59 | 7.53 | 8.56 | 9.69 | 10.9 | 12.3

FC(F)(F)c1cccnc1Cl + CN(C)C=O + CCCCO
solubility (g/100 g solution)
Conditions | 263.15 K | 268.15 K | 273.15 K | 278.15 K | 283.15 K | 288.15 K | 293.15 K | 298.15 K | 303.15 K
x2 = 0.2885 | 31.3 | 36.7 | 42.1 | 48.9 | 55.3 | 61.7 | 68.1 | 74.6 | 81.4
x2 = 0.4479 | 37.6 | 43.2 | 48.7 | 55.3 | 61.5 | 67.7 | 73.7 | 79.9 | 85.9
x2 = 0.6438 | 43.1 | 48.9 | 54.2 | 61.1 | 67.5 | 73.7 | 79.7 | 85.6 | 90.9
x2 = 0.8281 | 50.8 | 56.5 | 61.9 | 68.2 | 74 | 79.6 | 85 | 90.4 | 95.1
